Test results reported in PMC5620575 (Pharmaceutics, 2017).
Values after ≈ are worked out from the molar mass of the structure shown.

How the values were obtained:
[1] = plasma protein binding (ultrafiltration); type: in vitro ADME; details: for fraction unbound at 1 h, 250 μg/L / fraction unbound at 1 h, 1000 μg/L / fraction unbound at 1 h: rabbit, plasma; for fraction unbound at 1 h, 250 μg/L / fraction unbound at 1 h, 1000 μg/L: n = 3, read-out: Plasma protein binding (% bound) (converted)
Description: The remaining volume of the plasma samples obtained by centrifugation in the blood to plasma partition experiment, about 600 μL, was immediately placed in disposable ultrafiltration devices (Centrifree®, EMD Millipore Corp., Billerica, MA, USA), and centrifuged in a temperature controlled centrifuge at 37 °C. The ultrafiltrate collected in the ultrafiltration device cup was stored at −20 °C until analysis. The plasma protein binding for the three compounds in rabbit plasma was determined in triplicates at two different concentrations. The total (free + bound) plasma concentration is the concentration in the plasma samples obtained by centrifugation in the blood to plasma partition experiment, while the free (unbound) concentration is the concentration in the ultrafiltrate. The percentage bound was calculated from the free concentration and the corresponding total concentration according to Equation (1). (1) % Bound = Total concentration−Free concentration/Total concentration × 100

[2] = pharmacokinetics after single oral administration as suspension; type: in vivo; details: New Zealand White, plasma, rabbit, 20 mg/kg, n = 4
Description: The pediatric feeding tube was pushed until it reached the stomach.
(§1) Three groups of rabbits (n = 4, each) received 20 mg/kg oral dose of each compound. […] Accurately weighted amounts of each compound were dissolved/suspended in 20 mL of warm normal saline using an ultrasound water bath. […] The solutions/suspensions of the three compounds were administered orally to the rabbits using a pediatric feeding tubes. After oral administration of each compound, serial blood samples were obtained through the IV catheter, over a period of 10 h after administration. Plasma was obtained from blood by centrifugation, and samples were kept at −80 °C until analysis.
The pharmacokinetic parameters for each of the three compounds including half-life (t1/2), volume of distribution (Vd), elimination rate constant (k), area under the plasma concentration-time curve (AUC), total body clearance (CLT), renal clearance (CLR), and oral bioavailability (F) were determined using the general pharmacokinetic parameter calculation procedures using PKPD tools for Microsoft Excel. The obtained pharmacokinetic parameters for each compound were compared using Statistical Package of Social Sciences (SPSS) to determine the difference in the pharmacokinetic behavior for the three compounds.

[3] = test system: Moraxella catarrhalis; parameters: method as in PMID 12467705, PMID 15911326, PMID 17140706, PMID 19376613, PMID 23811087; details: cited from earlier work
[4] = test system: S. aureus Giorgio; parameters: method as in ref unpublished data from Jin-Hwan Kwak at Handong Global University; details: oral suspension 1 and 4 h after infection, survival recorded for 72 h; ref unpublished data from Jin-Hwan Kwak at Handong Global University; cited from earlier work
[5] = solubility observed on preparing the oral dose in normal saline; type: physicochemical; details: 20 mg/kg oral dose in 20 mL of warm normal saline
Description: as §1

[6] = test system: Heamophilus influenzae; parameters: method as in PMID 12467705, PMID 15911326, PMID 17140706, PMID 19376613, PMID 23811087; details: unit printed only for the neighbouring MICs of the sentence; cited from earlier work

| fraction unbound at 1 h, 250 μg/L [1] | fraction unbound at 1 h, 1000 μg/L [1] | fraction unbound at 1 h ([1]; over both concentrations) | AUC [2] [ng·h/mL] | Cmax [2] [ng/mL] | Tmax [2] [h] | bioavailability [2] [%] | plasma protein binding ([1]; rabbit plasma, over both concentrations) [%] | Structure (SMILES) | MIC [3] [µg/mL] | in vivo activity against systemic mice infection [4] | solubility (observed) [5] | MIC [6] [µg/mL] |
| --- | --- | --- | --- | --- | --- | --- | --- | --- | --- | --- | --- | --- |
| 0.613 | 0.622 | 0.62 to 0.63 | 5010 ± 2430 | 1620 ± 820 | 1 | 22.1 |  | O=C1O[C@@H](Cn2ccnn2)CN1c1ccc(N2CCOCC2)c(F)c1 [PH027] | > 16.0 | lower in vivo activity |  |  |
| 0.089 | 0.091 ± 0.0019 | 0.09 to 0.1 | 369 ± 378 | 69.7 ± 14.8 | 1 | 4.73 | 91 | O=C1O[C@@H](Cn2ccnn2)CN1c1ccc(N2CCN(C(=O)C(F)(F)F)CC2)c(F)c1 [PH051] | 8.0 (≈ 18.1 µM) | lower in vivo activity | least water-soluble of the three compounds | 64 (≈ 145 µM) |
